In patent US12421254B2, “KRAS modulators and uses thereof” (Quanta Therapeutics, Inc., priority 2023, dated 2025):

How the values were obtained:
[1] = target: GST-tagged KRAS-G12D (2-169) (Homo sapiens, UniProt P01116, G12D); assay: Nucleotide exchange assay (NEA), SOS-mediated, HTRF, KRAS G12D; format: biochemical; details: Table 4; IC50 extracted at 30 min; 20 nM SOScat; read-out: NEA G12D IC50
Method in brief: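 SOS1cat-driven loading of fluorescent GTP-DY-647P1 (150 nM) onto GST-KRAS-G12D (2-169, 0.25 nM) read by time-resolved FRET; SOScat 20 nM, compound preincubated with KRAS 1 h at RT. Signal blanked to no-SOS reactions, normalized to DMSO; IC50 fitted from the 30-min read.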

[2] = target: GST-tagged KRAS-G12V (2-169) (Homo sapiens, UniProt P01116, G12V); assay: Nucleotide exchange assay (NEA), SOS-mediated, HTRF, KRAS G12V; format: biochemical; details: Table 4; IC50 extracted at 90 min; 80 nM SOS
Method in brief: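 Exchange onto fluorescent GTP-DY-647P1 (150 nM final) catalysed by 80 nM SOS1cat was followed by Tb-anti-GST HTRF at RT for up to 90 min, after 1 h compound pre-incubation with 0.25 nM GST-tagged KRAS-G12V (2-169), pH 7.3. DMSO = 0%, no-SOS blank = 100%; 4-parameter IC50 taken at 90 min.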

[3] = system: phospho-ERK in GP2D (KRAS-G12D) cells; assay: pERK In Cell Western (ICW) assay (Method B), GP2D; format: cell-based
Method in brief: (§1)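 Read-out is In-Cell Western phospho-ERK signal divided by DRAQ5 per well, as percent of blank control, fitted with a 4-parameter variable-slope model for IC50. Compounds were dosed as 9-point half-log series for 3 h at 37°C on AGS, GP2D (G12D) or SW620 (G12V) cells plated the day before.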

[4] = system: phospho-ERK in SW620 (KRAS-G12V) cells; assay: pERK In Cell Western (ICW) assay (Method B), SW620; format: cell-based
Method in brief: as §1

[5] = Homo sapiens, SW-620, 3 h, Table 4

Sequence of GST-tagged KRAS-G12D (2-169) (P01116 2-169 isoform P01116-2 G12D): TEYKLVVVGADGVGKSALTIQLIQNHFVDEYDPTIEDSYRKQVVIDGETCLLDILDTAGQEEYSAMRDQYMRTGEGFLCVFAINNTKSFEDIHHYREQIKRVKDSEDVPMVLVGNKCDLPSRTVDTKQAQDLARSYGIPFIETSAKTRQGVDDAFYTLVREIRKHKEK
Sequence of GST-tagged KRAS-G12V (2-169) (P01116 2-169 isoform P01116-2 G12V): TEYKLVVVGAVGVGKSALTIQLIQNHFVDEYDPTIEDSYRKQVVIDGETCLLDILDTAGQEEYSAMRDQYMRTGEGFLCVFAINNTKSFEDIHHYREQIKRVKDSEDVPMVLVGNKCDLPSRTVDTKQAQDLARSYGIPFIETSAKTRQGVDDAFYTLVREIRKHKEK

| SMILES | IC50 [1] | IC50 [2] | IC50 ([3]; GP2d, 3 h, Table 4) | IC50 [4, 5] | IC50 ([3]; Table 4, 3 hours) | IC50 ([4]; Table 4, 3 hours) |
| --- | --- | --- | --- | --- | --- | --- |
| N#Cc1c(N)sc2c1C1(CC2)CN(c2nc(OC[C@@]34CCCN3C[C@H](F)C4)nc(N(CCO)Cc3cn[nH]c3)n2)C1 [Compound 137, 2-amino-1′-[4-[[(2R,8S)-2-fluoro-1,2,3,5,6,7-hexahydropyrrolizin-8-yl]methoxy]-6-[2-hydroxyethyl(1H-pyrazol-4-ylmethyl)amino]-1,3,5-triazin-2-yl]spiro[5,6-dihydrocyclopenta[b]thiophene-4,3′-azetidine]-3-carbonitrile] | 100 to 1000 nM | 10 to 100 nM | 1000 to 20000 nM | 1000 to 20000 nM | – | – |
| CC(c1cccnc1O)N(C)c1nc(OC[C@@]23CCCN2C[C@H](F)C3)nc(N2CC3(CCc4sc(N)c(C#N)c43)C2)n1 (stereo partly drawn) [Compound 138, 2-amino-1′-[4-[[(2R,8S)-2-fluoro-1,2,3,5,6,7-hexahydropyrrolizin-8-yl]methoxy]-6-[1-(2-hydroxy-3-pyridyl)ethyl-methyl-amino]-1,3,5-triazin-2-yl]spiro[5,6-dihydrocyclopenta[b]thiophene-4,3′-azetidine]-3-carbonitrile] | 100 to 1000 nM | 1000 to 20000 nM | 1000 to 20000 nM | 1000 to 20000 nM | – | – |
| CCN(c1nc(OC[C@@]23CCCN2C[C@H](F)C3)nc(N2CC3(C2)SCc2sc(N)c(C#N)c23)n1)[C@H](C)c1cccnc1N [Compound 139A, 2-amino-1′-[4-[[(1*)-1-(2-amino-3-pyridyl)ethyl]-ethyl-amino]-6-[[(2R,8S)-2-fluoro-1,2,3,5,6,7-hexahydropyrrolizin-8-yl]methoxy]-1,3,5-triazin-2-yl]spiro[6H-thieno[3,4-b]thiophene-4,3′-azetidine]-3-carbonitrile] | < 10 nM | < 10 nM | < 10 nM | < 10 nM | – | – |
| CCN(c1nc(OC[C@@]23CCCN2C[C@H](F)C3)nc(N2CC3(C2)SCc2sc(N)c(C#N)c23)n1)[C@@H](C)c1cccnc1N [Compound 139B, 2-amino-1′-[4-[[(1*)-1-(2-amino-3-pyridyl)ethyl]-ethyl-amino]-6-[[(2R,8S)-2-fluoro-1,2,3,5,6,7-hexahydropyrrolizin-8-yl]methoxy]-1,3,5-triazin-2-yl]spiro[6H-thieno[3,4-b]thiophene-4,3′-azetidine]-3-carbonitrile] | < 10 nM | < 10 nM | 10 to 100 nM | 10 to 100 nM | – | – |
| CC(O)CN(Cc1cccnc1N)c1nc(OC[C@@]23CCCN2C[C@H](F)C3)nc(N2CC3(CCc4sc(N)c(C#N)c43)C2)n1 (stereo partly drawn) [Compound 141, 2-amino-1′-[4-[(2-amino-3-pyridyl)methyl-(2-hydroxypropyl)amino]-6-[[(2R,8S)-2-fluoro-1,2,3,5,6,7-hexahydropyrrolizin-8-yl]methoxy]-1,3,5-triazin-2-yl]spiro[5,6-dihydrocyclopenta[b]thiophene-4,3′-azetidine]-3-carbonitrile] | 10 to 100 nM | < 10 nM | 1000 to 20000 nM | 100 to 1000 nM | – | – |
| C[C@H](c1cc(N)ncc1F)N(C)c1nc(OC[C@@]23CCCN2C[C@H](F)C3)nc(N2CC3(CCc4sc(N)c(C#N)c43)C2)n1 [Compound 142, 2-amino-1′-[4-[[(1R)-1-(2-amino-5-fluoro-4-pyridyl)ethyl]-methyl-amino]-6-[[(2R,8S)-2-fluoro-1,2,3,5,6,7-hexahydropyrrolizin-8-yl]methoxy]-1,3,5-triazin-2-yl]spiro[5,6-dihydrocyclopenta[b]thiophene-4,3′-azetidine]-3-carbonitrile] | < 10 nM | < 10 nM | – | – | 10 to 100 nM | 10 to 100 nM |
| C[C@@]1(O)C[C@H](F)CN(c2nc(OC[C@@]34CCCN3C[C@H](F)C4)nc(N3CC4(C3)SCc3sc(N)c(C#N)c34)n2)C1 [Compound 143, 2-amino-1′-[4-[[(2R,8S)-2-fluoro-1,2,3,5,6,7-hexahydropyrrolizin-8-yl]methoxy]-6-[(3R,5S)-5-fluoro-3-hydroxy-3-methyl-1-piperidyl]-1,3,5-triazin-2-yl]spiro[6H-thieno[3,4-b]thiophene-4,3′-azetidine]-3-carbonitrile] | < 10 nM | < 10 nM | < 10 nM | 10 to 100 nM | – | – |
| N#Cc1c(N)sc2c1C1(CN(c3nc(OC[C@@]45CCCN4C[C@H](F)C5)nc(N4CCOCC(C#N)C4)n3)C1)SC2 (stereo partly drawn) [Compound 146, 4-[4-(2-amino-3-cyano-spiro[6H-thieno[3,4-b]thiophene-4,3′-azetidine]-1′-yl)-6-[[(2R,8S)-2-fluoro-1,2,3,5,6,7-hexahydropyrrolizin-8-yl]methoxy]-1,3,5-triazin-2-yl]-1,4-oxazepane-6-carbonitrile] | 10 to 100 nM | < 10 nM | 100 to 1000 nM | 100 to 1000 nM | – | – |
| C[C@H](c1cccnc1N)N(CCC#N)c1nc(OCC2(CN3CCOCC3)CC2)nc(N2CC3(C2)SCc2sc(N)c(C#N)c23)n1 [Compound 148, (R)-2′-amino-1-(4-((1-(2-aminopyridin-3-yl)ethyl)(2-cyanoethyl)amino)-6-((1-(morpholinomethyl)cyclopropyl)methoxy)-1,3,5-triazin-2-yl)-6′H-spiro[azetidine-3,4′-thieno[3,4-b]thiophene]-3′-carbonitrile] | < 10 nM | < 10 nM | 10 to 100 nM | < 10 nM | – | – |
| CC(CO)N(Cc1cccnc1N)c1nc(OC[C@@]23CCCN2C[C@H](F)C3)nc(N2CC3(CCc4sc(N)c(C#N)c43)C2)n1 (stereo partly drawn) [Compound 149, 2-amino-1′-[4-[(2-amino-3-pyridyl)methyl-(2-hydroxy-1-methyl-ethyl)amino]-6-[[(2R,8S)-2-fluoro-1,2,3,5,6,7-hexahydropyrrolizin-8-yl]methoxy]-1,3,5-triazin-2-yl]spiro[5,6-dihydrocyclopenta[b]thiophene-4,3′-azetidine]-3-carbonitrile] | < 10 nM | < 10 nM | 1000 to 20000 nM | 100 to 1000 nM | – | – |
| CN(Cc1cncs1)c1nc(OC[C@@]23CCCN2C[C@H](F)C3)nc(N2CC3(CCc4sc(N)c(C#N)c43)C2)n1 [Compound 152, 2-amino-1′-[4-[[(2R,8S)-2-fluoro-1,2,3,5,6,7-hexahydropyrrolizin-8-yl]methoxy]-6-[methyl(thiazol-5-ylmethyl)amino]-1,3,5-triazin-2-yl]spiro[5,6-dihydrocyclopenta[b]thiophene-4,3′-azetidine]-3-carbonitrile] | 1000 to 20000 nM | 100 to 1000 nM | 1000 to 20000 nM | 1000 to 20000 nM | – | – |
| CN(C)CC1(COc2nc(N3CC4(C3)SCc3sc(N)c(C#N)c34)nc(N3C[C@@H](F)C[C@@](C)(O)C3)n2)CC1(F)F (stereo partly drawn) [Compound 153, 2-amino-1′-[4-[[1-[(dimethylamino)methyl]-2,2-difluoro-cyclopropyl]methoxy]-6-[(3R,5S)-5-fluoro-3-hydroxy-3-methyl-1-piperidyl]-1,3,5-triazin-2-yl]spiro[6H-thieno[3,4-b]thiophene-4,3′-azetidine]-3-carbonitrile] | < 10 nM | < 10 nM | < 10 nM | 10 to 100 nM | – | – |
| CC(c1nonc1N)N(C)c1nc(OC[C@@]23CCCN2C[C@H](F)C3)nc(N2CC3(CCc4sc(N)c(C#N)c43)C2)n1 (stereo partly drawn) [Compound 156, 2′-amino-1-(4-((1-(4-amino-1,2,5-oxadiazol-3-yl)ethyl)(methyl)amino)-6-(((2R,7aS)-2-fluorotetrahydro-1H-pyrrolizin-7a(5H)-yl)methoxy)-1,3,5-triazin-2-yl)-5′,6′-dihydrospiro[azetidine-3,4′-cyclopenta[b]thiophene]-3′-carbonitrile] | 100 to 1000 nM | < 10 nM | 1000 to 20000 nM | 10 to 100 nM | – | – |
| CC(c1cn(C)nc1N)N(C)c1nc(OC[C@@]23CCCN2C[C@H](F)C3)nc(N2CC3(CCc4sc(N)c(C#N)c43)C2)n1 (stereo partly drawn) [Compound 157, amino-1′-[4-[1-(3-amino-1-methyl-pyrazol-4-yl)ethyl-methyl-amino]-6-[[(2R,8S)-2-fluoro-1,2,3,5,6,7-hexahydropyrrolizin-8-yl]methoxy]-1,3,5-triazin-2-yl]spiro[5,6-dihydrocyclopenta[b]thiophene-4,3′-azetidine]-3-carbonitrile] | 100 to 1000 nM | 10 to 100 nM | 1000 to 20000 nM | 1000 to 20000 nM | – | – |
| CC(c1ccns1)N(C)c1nc(OC[C@@]23CCCN2C[C@H](F)C3)nc(N2CC3(CCc4sc(N)c(C#N)c43)C2)n1 (stereo partly drawn) [Compound 158, 2-amino-1′-[4-[[(2R,8S)-2-fluoro-1,2,3,5,6,7-hexahydropyrrolizin-8-yl]methoxy]-6-[1-isothiazol-5-ylethyl(methyl)amino]-1,3,5-triazin-2-yl]spiro[5,6-dihydrocyclopenta[b]thiophene-4,3′-azetidine]-3-carbonitrile] | 100 to 1000 nM | < 10 nM | 1000 to 20000 nM | 100 to 1000 nM | – | – |
